Experimental data published in patent publication US20250163104A1, “MACROCYCLIC IMMUNOMODULATORS” (priority 2021, published 2025).
Where a SMILES comes first, the peptide text is derived from it. Bridges are numbered along the chain shown (N, C = ends). [ ]: non-standard residue; d: D form. The star is where a group is joined. ξ: configuration not given here. Bip(4'-COOH) = N[C@@H](Cc1ccc(-c2ccc(C(=O)O)cc2)cc1)C(=O)O; Phe(3-CF3) = N[C@@H](Cc1cccc(C(F)(F)F)c1)C(=O)O; Ala(morpholin-4-yl) = N[C@@H](CN1CCOCC1)C(=O)O; Phe(4-COOH) = N[C@@H](Cc1ccc(C(=O)O)cc1)C(=O)O; Bip = N[C@@H](Cc1ccc(-c2ccccc2)cc1)C(=O)O; Phe(3-Me) = Cc1cccc(C[C@H](N)C(=O)O)c1; Phe(2-F) = N[C@@H](Cc1ccccc1F)C(=O)O; Val(3-OH) = CC(C)(O)[C@H](N)C(=O)O; 3Pal = N[C@@H](Cc1cccnc1)C(=O)O; 4Pal = N[C@@H](Cc1ccncc1)C(=O)O; Cha = N[C@@H](CC1CCCCC1)C(=O)O; Ile(3ξ) = CCC(C)[C@H](N)C(=O)O; Thr(3ξ) = CC(O)[C@H](N)C(=O)O; NMeNle = CCCC[C@H](NC)C(=O)O; Carboxymethyl = O=C(O)C*; Nle = CCCC[C@H](N)C(=O)O; Orn = NCCC[C@H](N)C(=O)O; Pra = C#CC[C@H](N)C(=O)O; Dab = NCC[C@H](N)C(=O)O; Nva = CCC[C@H](N)C(=O)O; Dap = NC[C@H](N)C(=O)O; Piv = CC(C)(C)C(=O)*

Biological target: T1, human PD-1 / PD-L1-Ig binding on Jurkat cell line over-expressing human PD-1 (Jurkat-PD-1) (Homo sapiens, UniProt Q15116)
T1 construct: expressed in transfected cells; host or cells: Jurkat
Assay: Jurkat-PD-1 Cell Binding High-Content Screening Assay (CBA)
Type: cell-based
Settings: Jurkat-PD-1 cells, PE-labeled PD-L1-Ig 20 nM final; read-out: Jurkat HPD1_PDL1 IC50
Outline: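 Jurkat-hPD-1 cells in DMEM with 10% fetal calf serum receive test compound and are held at 37° C for 2 h. PE-labeled PD-L1-Ig is added at 20 nM final and left for 1 hour. Cells are then fixed and Hoechst-stained, and binding is measured by imaging.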

T1 sequence (Q15116 25-288): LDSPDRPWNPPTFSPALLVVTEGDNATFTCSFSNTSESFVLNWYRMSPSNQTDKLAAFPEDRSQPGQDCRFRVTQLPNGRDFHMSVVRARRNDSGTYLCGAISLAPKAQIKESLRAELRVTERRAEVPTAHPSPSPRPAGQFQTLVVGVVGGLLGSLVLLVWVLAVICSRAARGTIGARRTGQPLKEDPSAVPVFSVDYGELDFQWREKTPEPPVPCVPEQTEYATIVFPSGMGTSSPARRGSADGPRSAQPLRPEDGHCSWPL

Row | Compound | IC50 [nM]
1 | CC(C)C[C@H]1NC(=O)[C@H](CCCN)NC(=O)[C@H](CCC(=O)O)NC(=O)[C@H](Cc2ccc(-c3ccccc3)cc2)NC(=O)[C@H](C(C)C)NC(=O)[C@H](Cc2ccccc2F)NC(=O)[C@H](CC(=O)O)NC(=O)[C@H](Cc2ccncc2)NC(=O)[C@H](Cc2ccncc2)NC(=O)CSC[C@@H](C(=O)N[C@@H](C)C(N)=O)NC(=O)[C@H]([C@@H](C)O)NC(=O)[C@H](C(C)C)NC(=O)[C@H](CC2CCCCC2)NC(=O)[C@H](CCN)NC1=O [Compound 2211] ({CH2CO}-[4Pal][4Pal]D[Phe(2-F)]V[Bip]E[Orn][dL][Dab][Cha]VTCA-NH2; thioether N-14) | 20.3
2 | CC(C)C[C@H]1NC(=O)[C@H](CCCN)NC(=O)[C@H](Cc2ccc(C(=O)O)cc2)NC(=O)[C@H](Cc2ccc(-c3ccccc3)cc2)NC(=O)[C@H](Cc2ccc(-c3ccc(C(=O)O)cc3)cc2)NC(=O)[C@H](Cc2cccc(C(F)(F)F)c2)NC(=O)[C@H](CC(=O)O)NC(=O)[C@H](Cc2ccc(C(=O)O)cc2)NC(=O)[C@H](CN2CCOCC2)NC(=O)CSC[C@@H](C(=O)N[C@@H](CCN)C(N)=O)NC(=O)[C@H](CCC(=O)O)NC(=O)[C@H](C(C)C)NC(=O)[C@H](CC2CCCCC2)NC(=O)[C@H](CCN)NC1=O [Example 2735] ({CH2CO}-[Ala(morpholin-4-yl)][Phe(4-COOH)]D[Phe(3-CF3)][Bip(4'-COOH)][Bip][Phe(4-COOH)][Orn][dL][Dab][Cha]VEC[Dab]-NH2; thioether N-14) | 2.2
3 | CC(C)C[C@H]1NC(=O)[C@H](CCCN)NC(=O)[C@H](C(C)C)NC(=O)[C@H](Cc2ccc(-c3ccccc3)cc2)NC(=O)[C@H](C(C)C)NC(=O)[C@H](Cc2c[nH]c3ccccc23)NC(=O)[C@H](CC(=O)O)NC(=O)[C@H](Cc2ccc(OCC(=O)O)cc2)NC(=O)[C@H](C(C)O)NC(=O)CSC[C@@H](C(=O)N[C@@H](CCN)C(N)=O)NC(=O)[C@H](C(C)O)NC(=O)[C@H](C(C)(C)O)NC(=O)[C@H](CC2CCCCC2)NC(=O)[C@H](CCN)NC1=O (stereo partly drawn) [Compound 2631] ({CH2CO}-[Thr(3ξ)]Y(Carboxymethyl)DWV[Bip]V[Orn][dL][Dab][Cha][Val(3-OH)][Thr(3ξ)]C[Dab]-NH2; thioether N-14) | 8.5
4 | C#CC[C@H](NC(=O)[C@H](CCN)NC(=O)[C@@H]1CSCC(=O)N[C@@H](CN)C(=O)N[C@@H](Cc2ccc(OCC(=O)O)cc2)C(=O)N[C@@H](CC(=O)O)C(=O)N[C@@H](Cc2cccc(C)c2)C(=O)N[C@@H](Cc2ccc(OCC(=O)O)cc2)C(=O)N[C@@H](Cc2ccc(-c3ccccc3)cc2)C(=O)N[C@@H](Cc2ccc(OCC(=O)O)cc2)C(=O)N[C@@H](CCCN)C(=O)N[C@H](CC(C)C)C(=O)N[C@@H](CCN)C(=O)N[C@@H](CC2CCCCC2)C(=O)N[C@@H](C(C)(C)O)C(=O)N[C@@H]([C@@H](C)O)C(=O)N1)C(N)=O [Compound 1858] ({CH2CO}-[Dap]Y(Carboxymethyl)D[Phe(3-Me)]Y(Carboxymethyl)[Bip]Y(Carboxymethyl)[Orn][dL][Dab][Cha][Val(3-OH)]TC[Dab][Pra]-NH2; thioether N-14) | 5
5 | Cc1cccc(C[C@@H]2NC(=O)[C@H](CC(=O)O)NC(=O)[C@H](Cc3ccc(OCC(=O)O)cc3)NC(=O)[C@H](CN)NC(=O)CSC[C@@H](C(=O)N[C@@H](CCN)C(N)=O)NC(=O)[C@H](CCCN)NC(=O)[C@H](C(C)C)NC(=O)[C@H](CC3CCCCC3)NC(=O)[C@H](CCNC(=O)C(C)(C)C)NC(=O)[C@@H](CC(C)C)NC(=O)[C@H](CCCN)NC(=O)[C@H](Cc3ccc(O)cc3)NC(=O)[C@H](Cc3ccc(-c4ccccc4)cc3)NC(=O)[C@H](Cc3ccc(O)cc3)NC2=O)c1 [Compound 2036] ({CH2CO}-[Dap]Y(Carboxymethyl)D[Phe(3-Me)]Y[Bip]Y[Orn][dL][Dab](Piv)[Cha]V[Orn]C[Dab]-NH2; thioether N-14) | 10
6 | CCC(C)[C@@H]1NC(=O)[C@H](Cc2ccc(-c3ccccc3)cc2)NC(=O)[C@H](C(C)C)NC(=O)[C@H](Cc2c[nH]c3ccccc23)NC(=O)[C@H](CC(=O)O)NC(=O)[C@H](Cc2cccnc2)NC(=O)[C@H](Cc2ccccc2)NC(=O)CSC[C@@H](C(=O)N[C@@H](C)C(N)=O)NC(=O)[C@H]([C@@H](C)O)NC(=O)[C@H](C(C)C)NC(=O)[C@H](CC2CCCCC2)NC(=O)[C@H](CCN)NC(=O)[C@@H](CC(C)C)NC(=O)[C@H](CCCN)NC1=O (stereo partly drawn) [Compound 2229] ({CH2CO}-F[3Pal]DWV[Bip][Ile(3ξ)][Orn][dL][Dab][Cha]VTCA-NH2; thioether N-14) | 21.5
7 | CCCC[C@H]1C(=O)N[C@@H](Cc2ccc(C(=O)O)cc2)C(=O)N[C@@H](CC(=O)O)C(=O)N[C@@H](Cc2c[nH]c3ccccc23)C(=O)N[C@@H](C(C)C)C(=O)N[C@@H](Cc2ccc(-c3ccccc3)cc2)C(=O)N[C@@H](C(C)C)C(=O)N[C@@H](CCCN)C(=O)N[C@H](CC(C)C)C(=O)N[C@@H](CCN)C(=O)N[C@@H](CC2CCCCC2)C(=O)N[C@@H](C(C)C)C(=O)N[C@@H](C(C)O)C(=O)N[C@H](C(=O)N[C@@H](CC(N)=O)C(N)=O)CSCC(=O)N1C (stereo partly drawn) [Compound 2551] ({CH2CO}-[NMeNle][Phe(4-COOH)]DWV[Bip]V[Orn][dL][Dab][Cha]V[Thr(3ξ)]CN-NH2; thioether N-14) | 92.5
8 | C#CC[C@H](NC(=O)[C@H](C)NC(=O)[C@@H]1CSCC(=O)N[C@@H](CCN)C(=O)N[C@@H](Cc2ccc(OCC(=O)O)cc2)C(=O)N[C@@H](CC(=O)O)C(=O)N[C@@H](Cc2cccc(C)c2)C(=O)N[C@@H](Cc2ccc(OCC(=O)O)cc2)C(=O)N[C@@H](Cc2ccc(-c3ccccc3)cc2)C(=O)N[C@@H](Cc2ccc(OCC(=O)O)cc2)C(=O)N[C@@H](CCCN)C(=O)N[C@H](CC(C)C)C(=O)N[C@@H](CCN)C(=O)N[C@@H](CC2CCCCC2)C(=O)N[C@@H](C(C)(C)O)C(=O)N[C@@H](CCC)C(=O)N1)C(=O)O [Compound 2697] ({CH2CO}-[Dab]Y(Carboxymethyl)D[Phe(3-Me)]Y(Carboxymethyl)[Bip]Y(Carboxymethyl)[Orn][dL][Dab][Cha][Val(3-OH)][Nva]CA[Pra]-OH; thioether N-14) | 26.2
9 | Cc1cccc(C[C@@H]2NC(=O)[C@H](CC(=O)O)NC(=O)[C@H](Cc3ccc(C(=O)O)cc3)NC(=O)[C@H](C(C)O)NC(=O)CSC[C@@H](C(=O)N[C@@H](CCN)C(N)=O)NC(=O)[C@H](CO)NC(=O)[C@H](C(C)(C)O)NC(=O)[C@H](CC3CCCCC3)NC(=O)[C@H](CCN)NC(=O)[C@@H](CC(C)C)NC(=O)[C@H](CCCN)NC(=O)[C@H](Cc3ccc(C(=O)O)cc3)NC(=O)[C@H](Cc3ccc(-c4ccccc4)cc3)NC(=O)[C@H](Cc3ccc(C(=O)O)cc3)NC2=O)c1 (stereo partly drawn) [Compound 2665] ({CH2CO}-[Thr(3ξ)][Phe(4-COOH)]D[Phe(3-Me)][Phe(4-COOH)][Bip][Phe(4-COOH)][Orn][dL][Dab][Cha][Val(3-OH)]SC[Dab]-NH2; thioether N-14) | 3.4
10 | CCCC[C@@H]1NC(=O)[C@H](CCCNC(=N)N)NC(=O)[C@@H](CC(C)C)NC(=O)[C@H](CCCN)NC(=O)[C@H]([C@@H](C)CC)NC(=O)[C@H](Cc2ccc(-c3ccccc3)cc2)NC(=O)[C@H](C(C)C)NC(=O)[C@H](Cc2c[nH]c3ccccc23)NC(=O)[C@H](CC(=O)O)NC(=O)[C@H](Cc2ccc(O)cc2)NC(=O)[C@H](CN)NC(=O)CSC[C@@H](C(=O)N[C@@H](C)C(N)=O)NC(=O)[C@H]([C@@H](C)O)NC(=O)[C@H](C(C)C)NC1=O [Compound 1149] ({CH2CO}-[Dap]YDWV[Bip]I[Orn][dL]R[Nle]VTCA-NH2; thioether N-14) | 47
11 | CC(C)C[C@@H]1NC(=O)[C@H](Cc2c[nH]c3ccccc23)NC(=O)[C@H](CC(=O)O)NC(=O)[C@H](Cc2ccncc2)NC(=O)[C@H](Cc2ccc(OCC(=O)O)cc2)NC(=O)CSC[C@@H](C(=O)NCC(N)=O)NC(=O)[C@H](CO)NC(=O)[C@H](C(C)C)NC(=O)[C@H](CC(C)C)NC(=O)[C@H](CCN)NC(=O)[C@@H](CC(C)C)NC(=O)[C@H](CCCN)NC(=O)[C@H](C(C)C)NC(=O)[C@H](Cc2ccc(-c3ccccc3)cc2)NC1=O [Compound 1258] ({CH2CO}-Y(Carboxymethyl)[4Pal]DWL[Bip]V[Orn][dL][Dab]LVSCG-NH2; thioether N-14) | 8
12 | Cc1cccc(C[C@@H]2NC(=O)[C@H](CC(=O)O)NC(=O)[C@H](Cc3ccc(OCC(=O)O)cc3)NC(=O)[C@H](CN)NC(=O)CSC[C@@H](C(N)=O)NC(=O)[C@H](CCCN)NC(=O)[C@H](C(C)C)NC(=O)[C@H](CC3CCCCC3)NC(=O)[C@H](CCN)NC(=O)[C@@H](CC(C)C)NC(=O)[C@H](CCCN)NC(=O)[C@H](Cc3ccc(O)cc3)NC(=O)[C@H](Cc3ccc(-c4ccccc4)cc3)NC(=O)[C@H](C(C)C)NC2=O)c1 [Compound 2264] ({CH2CO}-[Dap]Y(Carboxymethyl)D[Phe(3-Me)]V[Bip]Y[Orn][dL][Dab][Cha]V[Orn]C-NH2; thioether N-14) | 11.9
13 | CC(C)C[C@@H]1NC(=O)[C@H](CCN)NC(=O)[C@@H](CC(C)C)NC(=O)[C@H](CCCN)NC(=O)[C@H](CCCNC(=N)N)NC(=O)[C@H](Cc2ccc(-c3ccccc3)cc2)NC(=O)[C@H](C(C)C)NC(=O)[C@H](Cc2c[nH]c3ccccc23)NC(=O)[C@H](CC(=O)O)NC(=O)[C@H](Cc2ccc(C(=O)O)cc2)NC(=O)[C@H](Cc2ccc(OCC(=O)O)cc2)NC(=O)CSC[C@@H](C(=O)N[C@@H](C)C(N)=O)NC(=O)[C@H]([C@@H](C)O)NC(=O)[C@H](C(C)C)NC1=O [Compound 1243] ({CH2CO}-Y(Carboxymethyl)[Phe(4-COOH)]DWV[Bip]R[Orn][dL][Dab]LVTCA-NH2; thioether N-14) | 42.9
14 | Cc1cccc(C[C@@H]2NC(=O)[C@H](CC(=O)O)NC(=O)[C@H](Cc3ccc(C(=O)O)cc3)NC(=O)[C@H](Cc3ccncc3)NC(=O)CSC[C@@H](C(=O)N[C@@H](C)C(N)=O)NC(=O)[C@H]([C@@H](C)O)NC(=O)[C@H](C(C)C)NC(=O)[C@H](CC3CCCCC3)NC(=O)[C@H](CCN)NC(=O)[C@@H](CC(C)C)NC(=O)[C@H](CCCN)NC(=O)[C@H](C3CC3)NC(=O)[C@H](Cc3ccc(-c4ccccc4)cc3)NC(=O)[C@H](C(C)C)NC2=O)c1 [Compound 1617] | 8.5
